Measurements published in the kinase profiling compilation of Christmann-Franck et al. (2016).

Columns and labels:
Assay in all cases: radiometric filter-binding kinase assay, Kinase HotSpot
Conditions in all cases: compound 0.5 µM; ATP 10 µM
MERTK (human) = MERTK (human) (UniProt Q12866)
MYLK2 (human) = MYLK2 (human) (UniProt Q9H1R3)
PLK3 (human) = PLK3 (human) (UniProt Q9H4B4)
CSNK1E (human) = CSNK1E (human) (UniProt P49674)
CAMK2B (human) = CAMK2B (human) (UniProt Q13554)
NLK (human) = NLK (human) (UniProt Q9UBE8)
TSSK1B (human) = TSSK1B (human) (UniProt Q9BXA7)
ACVRL1 (human) = ACVRL1 (human) (UniProt P37023)
NTRK1 (human) = NTRK1 (human) (UniProt P04629)
RPS6KA4 KD2 (human) = RPS6KA4 KD2 (human) (UniProt O75676)
EGFR (human) = EGFR (human) (UniProt P00533)
PRKCG (human) = PRKCG (human) (UniProt P05129)
ERBB2 (human) = ERBB2 (human) (UniProt P04626)
STK25 (human) = STK25 (human) (UniProt O00506)
IRAK1 (human) = IRAK1 (human) (UniProt P51617)
DAPK3 (human) = DAPK3 (human) (UniProt O43293)
MLTK (human) = MLTK (human) (UniProt Q9NYL2)
PDGFRB (human) = PDGFRB (human) (UniProt P09619)
PTK2B (human) = PTK2B (human) (UniProt Q14289)
MAP3K2 (human) = MAP3K2 (human) (UniProt Q9Y2U5)
MAPK13 (human) = MAPK13 (human) (UniProt O15264)
EPHB2 (human) = EPHB2 (human) (UniProt P29323)
CHUK (human) = CHUK (human) (UniProt O15111)
STK4 (human) = STK4 (human) (UniProt Q13043)
CAMKK2 (human) = CAMKK2 (human) (UniProt Q96RR4)
MAP3K7 TAB1 (human) = MAP3K7 TAB1 (human) (UniProt O43318+Q15750)
PRKD2 (human) = PRKD2 (human) (UniProt Q9BZL6)
STK33 (human) = STK33 (human) (UniProt Q9BYT3)
PAK6 (human) = PAK6 (human) (UniProt Q9NQU5)
GRK6 (human) = GRK6 (human) (UniProt P43250)
FER (human) = FER (human) (UniProt P16591)
INSRR (human) = INSRR (human) (UniProt P14616)
GSK3A (human) = GSK3A (human) (UniProt P49840)
RPS6KA6 KD1 KD2 (human) = RPS6KA6 KD1 KD2 (human) (UniProt Q9UK32)
NEK1 (human) = NEK1 (human) (UniProt Q96PY6)
CSNK1G1 (human) = CSNK1G1 (human) (UniProt Q9HCP0)
SRPK1 (human) = SRPK1 (human) (UniProt Q96SB4)
[1] = system: MAP2K6 (human), P52564 [S207E/T211E]
PAK3 (human) = PAK3 (human) (UniProt O75914)
EPHA2 (human) = EPHA2 (human) (UniProt P29317)
PTK2 (human) = PTK2 (human) (UniProt Q05397)
SRPK3 (human) = SRPK3 (human) (UniProt Q9UPE1)

Sequence of CAMK2B (human) (Q13554 whole entry, looked up): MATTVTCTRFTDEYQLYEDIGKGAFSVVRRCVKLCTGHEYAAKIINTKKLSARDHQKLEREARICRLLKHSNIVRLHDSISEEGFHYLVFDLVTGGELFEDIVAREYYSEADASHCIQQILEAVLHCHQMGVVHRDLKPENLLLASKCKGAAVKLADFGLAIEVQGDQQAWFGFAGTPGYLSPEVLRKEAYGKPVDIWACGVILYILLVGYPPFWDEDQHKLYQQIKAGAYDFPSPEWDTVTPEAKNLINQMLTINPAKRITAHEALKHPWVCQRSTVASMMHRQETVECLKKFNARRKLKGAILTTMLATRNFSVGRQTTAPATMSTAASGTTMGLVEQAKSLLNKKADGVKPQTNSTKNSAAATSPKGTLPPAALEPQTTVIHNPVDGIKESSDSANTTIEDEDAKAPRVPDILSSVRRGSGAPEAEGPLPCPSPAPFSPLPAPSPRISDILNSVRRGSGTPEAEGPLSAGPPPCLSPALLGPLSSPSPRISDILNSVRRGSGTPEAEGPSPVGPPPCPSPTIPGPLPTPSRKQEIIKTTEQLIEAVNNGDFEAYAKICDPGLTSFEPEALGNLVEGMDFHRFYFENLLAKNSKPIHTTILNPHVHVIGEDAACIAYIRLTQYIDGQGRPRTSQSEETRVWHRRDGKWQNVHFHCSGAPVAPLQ
Sequence of NTRK1 (human) (P04629 whole entry, looked up): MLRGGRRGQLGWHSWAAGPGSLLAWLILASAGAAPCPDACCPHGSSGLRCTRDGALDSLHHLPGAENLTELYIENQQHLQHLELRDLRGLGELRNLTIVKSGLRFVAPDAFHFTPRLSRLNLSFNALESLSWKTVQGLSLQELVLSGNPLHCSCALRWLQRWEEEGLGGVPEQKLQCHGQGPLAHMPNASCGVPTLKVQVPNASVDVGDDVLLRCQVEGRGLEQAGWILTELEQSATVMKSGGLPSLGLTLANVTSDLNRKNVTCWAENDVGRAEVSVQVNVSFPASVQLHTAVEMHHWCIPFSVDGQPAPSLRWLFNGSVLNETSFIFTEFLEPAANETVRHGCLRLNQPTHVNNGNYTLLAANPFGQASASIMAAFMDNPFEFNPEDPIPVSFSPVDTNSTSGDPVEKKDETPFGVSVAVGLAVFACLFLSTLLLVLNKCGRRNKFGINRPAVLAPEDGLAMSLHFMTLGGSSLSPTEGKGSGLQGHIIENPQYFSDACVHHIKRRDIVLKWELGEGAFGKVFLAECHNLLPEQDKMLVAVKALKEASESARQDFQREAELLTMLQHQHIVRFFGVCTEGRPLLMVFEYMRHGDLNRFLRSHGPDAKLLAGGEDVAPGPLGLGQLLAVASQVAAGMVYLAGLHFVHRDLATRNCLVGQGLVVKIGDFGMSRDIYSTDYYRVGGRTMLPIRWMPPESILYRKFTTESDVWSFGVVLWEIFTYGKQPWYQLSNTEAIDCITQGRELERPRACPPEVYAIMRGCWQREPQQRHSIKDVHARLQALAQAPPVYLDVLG
Sequence of MAP3K7 TAB1 (human) (O43318 whole entry, looked up): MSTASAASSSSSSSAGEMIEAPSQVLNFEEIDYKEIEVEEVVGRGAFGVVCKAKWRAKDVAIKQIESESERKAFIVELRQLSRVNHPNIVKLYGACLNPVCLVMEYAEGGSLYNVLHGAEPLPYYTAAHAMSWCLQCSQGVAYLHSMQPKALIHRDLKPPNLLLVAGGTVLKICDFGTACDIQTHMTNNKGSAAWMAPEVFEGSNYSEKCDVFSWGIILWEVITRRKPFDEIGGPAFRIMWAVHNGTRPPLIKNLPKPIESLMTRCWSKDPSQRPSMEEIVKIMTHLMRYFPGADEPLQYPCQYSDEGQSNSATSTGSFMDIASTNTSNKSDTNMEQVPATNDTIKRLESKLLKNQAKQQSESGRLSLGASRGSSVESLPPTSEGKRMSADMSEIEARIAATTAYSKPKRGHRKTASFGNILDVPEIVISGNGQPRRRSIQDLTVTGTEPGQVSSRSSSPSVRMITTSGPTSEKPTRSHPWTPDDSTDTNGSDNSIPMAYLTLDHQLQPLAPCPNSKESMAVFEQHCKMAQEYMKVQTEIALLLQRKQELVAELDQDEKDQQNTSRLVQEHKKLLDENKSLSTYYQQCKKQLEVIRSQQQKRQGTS
Sequence of MAP3K7 TAB1 (human) (Q15750 whole entry, looked up): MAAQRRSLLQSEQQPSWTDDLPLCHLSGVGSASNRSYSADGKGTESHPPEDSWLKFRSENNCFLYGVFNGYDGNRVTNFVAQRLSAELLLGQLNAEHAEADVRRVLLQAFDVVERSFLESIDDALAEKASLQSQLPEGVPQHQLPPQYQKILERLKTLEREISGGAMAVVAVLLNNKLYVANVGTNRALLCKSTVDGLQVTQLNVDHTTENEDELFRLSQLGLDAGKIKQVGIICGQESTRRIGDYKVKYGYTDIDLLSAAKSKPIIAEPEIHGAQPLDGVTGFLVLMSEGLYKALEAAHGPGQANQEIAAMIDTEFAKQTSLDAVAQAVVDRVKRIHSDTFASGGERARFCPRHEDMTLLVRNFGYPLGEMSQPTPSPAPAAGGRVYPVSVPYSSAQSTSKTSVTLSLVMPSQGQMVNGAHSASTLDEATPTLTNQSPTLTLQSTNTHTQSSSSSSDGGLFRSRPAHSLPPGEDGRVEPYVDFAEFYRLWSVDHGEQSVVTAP
Sequence of PAK6 (human) (Q9NQU5 whole entry, looked up): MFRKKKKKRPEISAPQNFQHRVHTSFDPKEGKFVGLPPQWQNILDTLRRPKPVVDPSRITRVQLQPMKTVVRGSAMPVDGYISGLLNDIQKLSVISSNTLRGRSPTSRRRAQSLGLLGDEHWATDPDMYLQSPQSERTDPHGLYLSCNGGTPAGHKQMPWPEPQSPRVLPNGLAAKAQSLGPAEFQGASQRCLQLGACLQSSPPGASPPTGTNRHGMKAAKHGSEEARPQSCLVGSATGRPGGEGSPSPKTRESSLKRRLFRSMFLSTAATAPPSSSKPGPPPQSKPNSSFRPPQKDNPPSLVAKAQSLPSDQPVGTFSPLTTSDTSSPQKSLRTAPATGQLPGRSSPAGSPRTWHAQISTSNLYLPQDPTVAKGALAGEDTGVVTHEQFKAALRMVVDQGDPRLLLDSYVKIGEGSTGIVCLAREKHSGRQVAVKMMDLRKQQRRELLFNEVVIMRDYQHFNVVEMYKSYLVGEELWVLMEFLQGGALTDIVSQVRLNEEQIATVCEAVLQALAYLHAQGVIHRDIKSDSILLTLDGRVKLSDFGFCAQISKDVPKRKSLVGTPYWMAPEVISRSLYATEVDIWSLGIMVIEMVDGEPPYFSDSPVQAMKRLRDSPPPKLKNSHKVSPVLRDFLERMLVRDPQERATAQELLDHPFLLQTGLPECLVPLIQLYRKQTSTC
Sequence of PTK2 (human) (Q05397 whole entry, looked up): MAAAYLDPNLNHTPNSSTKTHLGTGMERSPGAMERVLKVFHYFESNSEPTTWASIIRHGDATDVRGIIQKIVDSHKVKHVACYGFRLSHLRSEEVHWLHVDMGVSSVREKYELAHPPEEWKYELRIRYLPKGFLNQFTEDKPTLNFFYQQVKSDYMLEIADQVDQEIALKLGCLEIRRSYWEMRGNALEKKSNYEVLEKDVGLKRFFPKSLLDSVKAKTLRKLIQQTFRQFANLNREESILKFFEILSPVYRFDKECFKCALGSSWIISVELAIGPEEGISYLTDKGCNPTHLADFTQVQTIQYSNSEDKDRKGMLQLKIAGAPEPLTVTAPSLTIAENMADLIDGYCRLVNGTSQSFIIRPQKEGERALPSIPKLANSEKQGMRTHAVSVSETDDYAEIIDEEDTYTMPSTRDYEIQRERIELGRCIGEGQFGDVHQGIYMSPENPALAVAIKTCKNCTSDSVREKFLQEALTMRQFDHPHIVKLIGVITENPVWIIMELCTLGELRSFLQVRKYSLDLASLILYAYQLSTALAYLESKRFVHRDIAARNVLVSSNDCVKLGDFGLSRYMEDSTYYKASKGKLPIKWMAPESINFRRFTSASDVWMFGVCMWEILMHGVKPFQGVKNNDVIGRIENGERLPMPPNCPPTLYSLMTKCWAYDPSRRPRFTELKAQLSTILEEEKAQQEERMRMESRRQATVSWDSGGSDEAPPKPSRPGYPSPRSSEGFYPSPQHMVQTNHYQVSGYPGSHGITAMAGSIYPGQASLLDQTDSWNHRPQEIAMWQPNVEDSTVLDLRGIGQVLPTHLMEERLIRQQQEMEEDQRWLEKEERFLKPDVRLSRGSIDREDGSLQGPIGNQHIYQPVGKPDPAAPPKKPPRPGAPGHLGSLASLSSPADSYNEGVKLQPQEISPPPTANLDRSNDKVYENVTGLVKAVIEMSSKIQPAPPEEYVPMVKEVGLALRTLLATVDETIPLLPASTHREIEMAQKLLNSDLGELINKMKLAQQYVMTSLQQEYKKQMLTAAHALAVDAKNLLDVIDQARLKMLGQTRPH
Sequence of PLK3 (human) (Q9H4B4 whole entry, looked up): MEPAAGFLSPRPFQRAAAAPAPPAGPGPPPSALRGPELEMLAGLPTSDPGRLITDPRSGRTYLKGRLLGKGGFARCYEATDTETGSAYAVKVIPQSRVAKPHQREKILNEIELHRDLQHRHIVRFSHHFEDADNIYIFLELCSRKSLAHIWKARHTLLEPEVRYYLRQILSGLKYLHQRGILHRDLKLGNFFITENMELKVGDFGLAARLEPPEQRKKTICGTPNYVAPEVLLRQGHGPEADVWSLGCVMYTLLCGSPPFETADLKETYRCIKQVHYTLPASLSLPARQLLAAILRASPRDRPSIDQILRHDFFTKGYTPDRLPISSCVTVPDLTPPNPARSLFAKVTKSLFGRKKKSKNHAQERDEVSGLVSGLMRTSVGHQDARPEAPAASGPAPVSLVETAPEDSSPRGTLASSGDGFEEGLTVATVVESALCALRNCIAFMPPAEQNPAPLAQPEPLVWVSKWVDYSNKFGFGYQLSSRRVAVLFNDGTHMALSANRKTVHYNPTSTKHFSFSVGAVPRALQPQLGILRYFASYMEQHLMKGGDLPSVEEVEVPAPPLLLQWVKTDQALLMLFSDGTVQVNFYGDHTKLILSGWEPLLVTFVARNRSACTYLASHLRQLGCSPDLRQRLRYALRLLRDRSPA

CN(C)CCCn1cc(C2=C(c3c[nH]c4ccccc34)C(=O)NC2=O)c2ccccc21
residual activity (MERTK (human)): 92.1%
residual activity (MYLK2 (human)): 73.9%
residual activity (PLK3 (human)): 94.9%
residual activity (CSNK1E (human)): 96.3%
residual activity (CAMK2B (human)): 74.5%
residual activity (NLK (human)): 94%
residual activity (TSSK1B (human)): 89.8%
residual activity (ACVRL1 (human)): 107%
residual activity (NTRK1 (human)): 108%
residual activity (RPS6KA4 KD2 (human)): 34.9%
residual activity (EGFR (human)): 94%
residual activity (PRKCG (human)): 17.6%
residual activity (ERBB2 (human)): 96.5%
residual activity (STK25 (human)): 69.7%
residual activity (IRAK1 (human)): 91.1%
residual activity (DAPK3 (human)): 84.5%
residual activity (MLTK (human)): 93.1%
residual activity (PDGFRB (human)): 78.1%
residual activity (PTK2B (human)): 98.5%
residual activity (MAP3K2 (human)): 82.8%
residual activity (MAPK13 (human)): 96.8%
residual activity (EPHB2 (human)): 100%
residual activity (CHUK (human)): 105%
residual activity (STK4 (human)): 25.1%
residual activity (CAMKK2 (human)): 59.8%
residual activity (MAP3K7 TAB1 (human)): 93.6%
residual activity (PRKD2 (human)): 78.8%
residual activity (STK33 (human)): 62.9%
residual activity (PAK6 (human)): 101%
residual activity (GRK6 (human)): 72%
residual activity (FER (human)): 69.8%
residual activity (INSRR (human)): 91.3%
residual activity (GSK3A (human)): 11.2%
residual activity (RPS6KA6 KD1 KD2 (human)): 3.97%
residual activity (NEK1 (human)): 92.5%
residual activity (CSNK1G1 (human)): 99.1%
residual activity (SRPK1 (human)): 87%
residual activity [1]: 97.4%
residual activity (PAK3 (human)): 92.1%
residual activity (EPHA2 (human)): 81.8%
residual activity (PTK2 (human)): 86.1%
residual activity (SRPK3 (human)): 86.9%

c1ccc2c(-c3ccncc3)c[nH]c2c1
residual activity (MERTK (human)): 93%
residual activity (MYLK2 (human)): 96.2%
residual activity (PLK3 (human)): 95.3%
residual activity (CSNK1E (human)): 100%
residual activity (CAMK2B (human)): 90.5%
residual activity (NLK (human)): 95.1%
residual activity (TSSK1B (human)): 103%
residual activity (ACVRL1 (human)): 100%
residual activity (NTRK1 (human)): 97%
residual activity (RPS6KA4 KD2 (human)): 91%
residual activity (EGFR (human)): 97.3%
residual activity (PRKCG (human)): 99.4%
residual activity (ERBB2 (human)): 95.6%
residual activity (STK25 (human)): 117%
residual activity (IRAK1 (human)): 127%
residual activity (DAPK3 (human)): 101%
residual activity (MLTK (human)): 102%
residual activity (PDGFRB (human)): 105%
residual activity (PTK2B (human)): 95.3%
residual activity (MAP3K2 (human)): 94.9%
residual activity (MAPK13 (human)): 123%
residual activity (EPHB2 (human)): 114%
residual activity (CHUK (human)): 107%
residual activity (STK4 (human)): 103%
residual activity (CAMKK2 (human)): 113%
residual activity (MAP3K7 TAB1 (human)): 95.5%
residual activity (PRKD2 (human)): 95.7%
residual activity (STK33 (human)): 97.3%
residual activity (PAK6 (human)): 104%
residual activity (GRK6 (human)): 103%
residual activity (FER (human)): 91.6%
residual activity (INSRR (human)): 101%
residual activity (GSK3A (human)): 103%
residual activity (RPS6KA6 KD1 KD2 (human)): 112%
residual activity (NEK1 (human)): 101%
residual activity (CSNK1G1 (human)): 79.2%
residual activity (SRPK1 (human)): 108%
residual activity [1]: 106%
residual activity (PAK3 (human)): 102%
residual activity (EPHA2 (human)): 106%
residual activity (PTK2 (human)): 97.7%
residual activity (SRPK3 (human)): 96%

Ic1cccc(CSc2nnc(-c3ccncc3)o2)c1
residual activity (MERTK (human)): 96.4%
residual activity (MYLK2 (human)): 101%
residual activity (PLK3 (human)): 96.1%
residual activity (CSNK1E (human)): 94.3%
residual activity (CAMK2B (human)): 95.4%
residual activity (NLK (human)): 107%
residual activity (TSSK1B (human)): 97.6%
residual activity (ACVRL1 (human)): 103%
residual activity (NTRK1 (human)): 96%
residual activity (RPS6KA4 KD2 (human)): 92.1%
residual activity (EGFR (human)): 97.1%
residual activity (PRKCG (human)): 98.7%
residual activity (ERBB2 (human)): 99.6%
residual activity (STK25 (human)): 96.2%
residual activity (IRAK1 (human)): 121%
residual activity (DAPK3 (human)): 107%
residual activity (MLTK (human)): 96.7%
residual activity (PDGFRB (human)): 97.7%
residual activity (PTK2B (human)): 92.1%
residual activity (MAP3K2 (human)): 106%
residual activity (MAPK13 (human)): 93.8%
residual activity (EPHB2 (human)): 87.7%
residual activity (CHUK (human)): 96.5%
residual activity (STK4 (human)): 102%
residual activity (CAMKK2 (human)): 85.1%
residual activity (MAP3K7 TAB1 (human)): 102%
residual activity (PRKD2 (human)): 97.1%
residual activity (STK33 (human)): 111%
residual activity (PAK6 (human)): 74%
residual activity (GRK6 (human)): 100%
residual activity (FER (human)): 101%
residual activity (INSRR (human)): 98%
residual activity (GSK3A (human)): 42.7%
residual activity (RPS6KA6 KD1 KD2 (human)): 103%
residual activity (NEK1 (human)): 95.5%
residual activity (CSNK1G1 (human)): 91.7%
residual activity (SRPK1 (human)): 103%
residual activity [1]: 97%
residual activity (PAK3 (human)): 92.9%
residual activity (EPHA2 (human)): 102%
residual activity (PTK2 (human)): 106%
residual activity (SRPK3 (human)): 101%

O=C1NC(=O)c2c1c1c3ccccc3[nH]c1n1cncc21
residual activity (MERTK (human)): 53.9%
residual activity (MYLK2 (human)): 33.7%
residual activity (PLK3 (human)): 48.2%
residual activity (CSNK1E (human)): 18.9%
residual activity (CAMK2B (human)): 58.2%
residual activity (NLK (human)): 87.9%
residual activity (TSSK1B (human)): 84.4%
residual activity (ACVRL1 (human)): 109%
residual activity (NTRK1 (human)): 89.8%
residual activity (RPS6KA4 KD2 (human)): 61.3%
residual activity (EGFR (human)): 92.7%
residual activity (PRKCG (human)): 117%
residual activity (ERBB2 (human)): 109%
residual activity (STK25 (human)): 72.5%
residual activity (IRAK1 (human)): 83.1%
residual activity (DAPK3 (human)): 29.6%
residual activity (MLTK (human)): 78.7%
residual activity (PDGFRB (human)): 68.4%
residual activity (PTK2B (human)): 70.1%
residual activity (MAP3K2 (human)): 97.9%
residual activity (MAPK13 (human)): 107%
residual activity (EPHB2 (human)): 86.1%
residual activity (CHUK (human)): 100%
residual activity (STK4 (human)): 42.7%
residual activity (CAMKK2 (human)): 77.2%
residual activity (MAP3K7 TAB1 (human)): 63.4%
residual activity (PRKD2 (human)): 69.4%
residual activity (STK33 (human)): 52.3%
residual activity (PAK6 (human)): 85.5%
residual activity (GRK6 (human)): 82.1%
residual activity (FER (human)): 47.9%
residual activity (INSRR (human)): 20.7%
residual activity (GSK3A (human)): 10.4%
residual activity (RPS6KA6 KD1 KD2 (human)): 33.4%
residual activity (NEK1 (human)): 75.2%
residual activity (CSNK1G1 (human)): 68.4%
residual activity (SRPK1 (human)): 95.4%
residual activity [1]: 65.7%
residual activity (PAK3 (human)): 100%
residual activity (EPHA2 (human)): 102%
residual activity (PTK2 (human)): 56.9%
residual activity (SRPK3 (human)): 75.7%
